The species named for series [1] is Rattus norvegicus. As to the kind of experiment: Equilibrium dissociation constant based on membrane concentration in rat smooth muscle. The format is ADME, Muscle tissue.
Series [2] is filed under the species Rattus norvegicus. As to the kind of experiment: Equilibrium dissociation constant based on aqueous concentration in rat smooth muscle. The format is ADME, Muscle tissue.
Series [3] is described as follows: Partition coefficient of compound in to octanol/buffer. The format is physicochemical. As to conditions: octanol/water.
The conditions of series [4]: sarcoplasmic reticulum membrane.
Description: Partition coefficient of compound in to biological membranes
The species entered for series [5] is Rattus norvegicus. As to the kind of experiment: Equilibrium dissociation constant based on membrane concentration in rat cardiac muscle.

`CCOC(=O)C1=C(COCCN)NC(C)=C(C(=O)OC)C1c1ccccc1Cl` (stereo not drawn) [AMLODIPINE]: the values for the Kd in the series filed under Rattus norvegicus [1] and in the series listed under Rattus norvegicus [2] were 23000 nM and 1.2 nM, respectively. Moreover, the Partition coefficient is given as 30 in series [3] and 19000 in series [4].
With `COCCOC(=O)C1=C(C)NC(C)=C(C(=O)OC(C)C)C1c1cccc([N+](=O)[O-])c1` (stereo not drawn) [NIMODIPINE], the dissociation constant Kd in the series listed under Rattus norvegicus [1] stood at 690 nM; in the series listed under Rattus norvegicus [2], 0.11 nM. The Partition coefficient in series [3] is reported as 730; in series [4] it was 6300.
For the compound `COC(=O)C1=C(C)NC(C)=C(C(=O)OC)C1c1ccccc1[N+](=O)[O-]` [NIFEDIPINE], the figures for the dissociation constant Kd in the series filed under Rattus norvegicus [1] and in the series listed under Rattus norvegicus [2] were 23000 nM and 0.41 nM, respectively.
In the case of `CN/C(=N/CCSCc1nc[nH]c1C)NC#N` [CIMETIDINE], in series [3], the Partition coefficient is recorded as 1.
On the same count and under the same terms, as for `CC(C)(C)NC[C@H](O)COc1nsnc1N1CCOCC1` [TIMOLOL], the figure is 0.7.
With `COC(=O)C1=C(C)NC(C)=C(C(=O)OCC(C)C)C1c1ccccc1[N+](=O)[O-]` (stereo not drawn) [NISOLDIPINE], the dissociation constant Kd in the series filed under Rattus norvegicus [2] was found to be 0.14 nM; in the series filed under Rattus norvegicus [5], 1800 nM. Further, the Partition coefficient in series [3] amounted to 40; in series [4], 13000.
On to `CC(C)NCC(O)COc1cccc2ccccc12` (stereo not drawn) [PROPRANOLOL], for which the figures for the Partition coefficient in series [3] and in series [4] were 18 and 1200, respectively.

The record behind these values is ChEMBL document CHEMBL1125846, “Reevaluating equilibrium and kinetic binding parameters for lipophilic drugs based on a structural model for drug interaction with biological membranes” (J Med Chem, 1991).
